Reference: the Deep4Chem optical property database

Experiment: photoluminescence quantum yield (fraction); solvent given as SMILES
[1] = in O=P(c1ccccc1)(c1ccccc1)c1ccccc1Oc1ccccc1P(=O)(c1ccccc1)c1ccccc1
[2] = in c1cc(-n2c3ccccc3c3ccccc32)cc(-n2c3ccccc3c3ccccc32)c1

Cc1cc(C)c(B(c2ccc(-c3nc4c5ccccc5c5ccccc5c4[nH]3)cc2)c2c(C)cc(C)cc2C)c(C)c1
photoluminescence quantum yield (in C1CCOC1): 0.79 | photoluminescence quantum yield (in CC(C)=O): 0.71 | photoluminescence quantum yield (in CS(C)=O): 0.76 | photoluminescence quantum yield (in Cc1ccccc1): 0.92 | photoluminescence quantum yield (in ClCCl): 0.8

Cc1cc(C)c(B2c3cc(C(C)(C)C)ccc3-c3c(-c4ccccc4)ccc4cc(C(C)(C)C)cc2c34)c(C)c1
photoluminescence quantum yield (in C1CCCCC1): 0.91

CC(C)[Si](C#Cc1c2ccccc2c(C#C[Si](C(C)C)(C(C)C)C(C)C)c2nc3c(nc12)C1c2ccccc2C3c2ccccc21)(C(C)C)C(C)C
photoluminescence quantum yield (in CCCCCC): 0.7

Fc1ccc2c(c1)sc1nc(-c3ccccc3)sc12
photoluminescence quantum yield (in CS(C)=O): 0.36

CCc1c(C)[nH]c(C2=[N+]3C(=Cc4c(C)c(CC)c(C)n4[B-]3(F)F)c3ccccc32)c1C
photoluminescence quantum yield (in C1CCOC1): 0.09 | photoluminescence quantum yield (in CC#N): 0.03 | photoluminescence quantum yield (in CCCCCC): 0.86 | photoluminescence quantum yield (in CO): 0.04 | photoluminescence quantum yield (in Cc1ccccc1): 0.75 | photoluminescence quantum yield (in ClCCl): 0.73

Cn1cccc1-c1ccc(C#N)cc1
photoluminescence quantum yield (in C1CCOC1): 0.94 | photoluminescence quantum yield (in CC#N): 0.51 | photoluminescence quantum yield (in CCCCCC): 0.92 | photoluminescence quantum yield (in CCCCOCCCC): 1 | photoluminescence quantum yield (in CCOCC): 0.98

c1ccc2c(c1)c1ccccc1n2-c1ccc2c(c1)c1ccccc1n2-c1cc2c3ccccc3n3c4ccccc4c(c1)c23
photoluminescence quantum yield [1]: 0.53

c1ccc(-n2cccc2)cc1
photoluminescence quantum yield (in CC#N): 0.17 | photoluminescence quantum yield (in CCCCCC): 0.24

C(=C/c1ccc(N(c2ccccc2)c2ccccc2)cc1)/c1ccc(N(c2ccccc2)c2ccccc2)cc1
photoluminescence quantum yield (in ClCCl): 0.99

CN(C)c1ccc(C2=Nc3sc4c(F)c(F)c(F)c(F)c4[n+]3[B-](F)(F)O2)cc1
photoluminescence quantum yield (in C1CCOC1): 0.47 | photoluminescence quantum yield (in CC#N): 0.02 | photoluminescence quantum yield (in Cc1ccccc1): 0.65 | photoluminescence quantum yield (in ClCCl): 0.66

Cc1cccc2ccccc12
photoluminescence quantum yield (in C1CCCCC1): 0.4

CCCCCOc1ccc2c(c1)c1ccc3cccc4c5cccc6oc(=O)c2c(c65)c1c34
photoluminescence quantum yield (in C1CCOC1): 0.529

C=C(C)C(CN1C(=O)c2cccc3c2c(cc2nc(C)oc23)C1=O)OO (configuration not stated)
photoluminescence quantum yield (in CCO): 0.061

COC(=O)c1cc(=O)n(C)c2cc(-c3cccc(OC)c3)sc12
photoluminescence quantum yield (in CC#N): 0.32 | photoluminescence quantum yield (in ClCCl): 0.48

ClP1(Cl)=N[P@](Cl)(Oc2ccc3ccc4cccc5ccc2c3c45)=N[P@@](Cl)(Oc2ccc3ccc4cccc5ccc2c3c45)=N1
photoluminescence quantum yield (in ClCCl): 0.76

COc1cccc2c1oc(=O)c1c(=O)oc3cc(O)ccc3c12
photoluminescence quantum yield (in ClCCl): 0.004

c1ccc(-n2c3c(c4c2-c2ccccc2C42c4ccccc4-c4ccccc42)C2(c4ccccc4-c4ccccc42)c2ccccc2-3)cc1
photoluminescence quantum yield (in C1CCOC1): 0.37

O=C1OC(c2ccccc2)=C/C1=C\c1ccc([N+](=O)[O-])cc1
photoluminescence quantum yield (in C1COCCO1): 0.083

Cc1c(-c2ccc(N3c4ccccc4C(C)(C)c4ccccc43)cc2)ncnc1-c1ccc(N2c3ccccc3C(C)(C)c3ccccc32)cc1
photoluminescence quantum yield [1]: 0.75

COC(=O)C12N=N[C@](C(=O)OC)(C3C4C=CC(C4)C31)[C@@H]1C[C@H]12 (some centres not stated)
photoluminescence quantum yield (in CC#N): 0.034

c1cc2ccc1CCCc1cc3c(cc1CCCc1ccc(c4nsnc14)CCC3)CCC2
photoluminescence quantum yield (in C1CCCCC1): 0.12 | photoluminescence quantum yield (in CC#N): 0.02 | photoluminescence quantum yield (in ClC(Cl)Cl): 0.08

c1ccc(N(c2ccccc2)c2ccc3c4cccc5c(N(c6ccccc6)c6ccccc6)ccc(c6cccc2c63)c54)cc1
photoluminescence quantum yield (in ClCCl): 0.65

COc1ccc(C2=[N+]3C(=Nc4c5c6cc(OC)c(OC)c(OC)c6c6cc(C(C)(C)C)ccc6c5c(-c5ccc(OC)cc5)n4[B-]3(F)F)c3c2c2ccc(C(C)(C)C)cc2c2c(OC)c(OC)c(OC)cc32)cc1
photoluminescence quantum yield (in Cc1ccccc1): 0.35

COc1ccccc1-c1nc2c([nH]1)C1=CC(=O)S[C@]1(C)[C@@]1(C)SC(=O)C=C21
photoluminescence quantum yield (in CC#N): 0.11

CCOC(=O)COc1ccc(/C=C/C2=C3C(C)=CC(/C=C/c4ccc(OCC(=O)OCC)cc4)=[N+]3[B-](F)(F)n3c2c2ccccc2c3-c2[nH]c(C)cc2C)cc1
photoluminescence quantum yield (in ClCCl): 0.01

CCOC(=O)c1ccc2c(c1)[se]c1c3ccc(C(=O)OCC)cc3[se]c21
photoluminescence quantum yield (in CCCO): 0.002

CC(C)(C)c1ccc2c3c(c4ccc(C(C)(C)C)cc4c2c1)=[N+]1C(=C(c2ccccc2)c2c(Br)c4c5ccc(C(C)(C)C)cc5c5cc(C(C)(C)C)ccc5c4n2[B-]1(F)F)C=3Br
photoluminescence quantum yield (in C1CCCCC1): 0.03 | photoluminescence quantum yield (in C1CCOC1): 0.02 | photoluminescence quantum yield (in CC#N): 0.02 | photoluminescence quantum yield (in Cc1ccccc1): 0.03 | photoluminescence quantum yield (in ClCCl): 0.03

CN(C)C1=Nc2cccc3cccc1c23
photoluminescence quantum yield (in CC#N): 0.0066

CN(C)c1ccc(C2=CC3=C(c4ccc([N+](=O)[O-])cc4)[C@H]4c5ccccc5[C@]3(S2)c2ccccc24)cc1
photoluminescence quantum yield (in ClCCl): 0.003

c1ccc(-c2nc(-c3ccc(N4CCCC4)cc3)cc(-c3ccc4ccccc4c3)n2)cc1
photoluminescence quantum yield (in ClC(Cl)Cl): 0.19

CCOC(=O)c1ccc(C2CC(c3cccc4ccccc34)=NN2c2ccc(F)cc2)cc1 (configuration not stated)
photoluminescence quantum yield (in ClCCl): 0.191

O=P1(c2ccccc2)C(c2ccc(N(c3ccccc3)c3ccccc3)cc2)=Cc2ccccc21 (configuration not stated)
photoluminescence quantum yield (in ClCCl): 0.81

COc1cc2c(cc1-c1ccsc1)Cc1c3c(c4c(c1-2)-c1cc(OC)c(-c2ccsc2)cc1C4)C(=O)N(CCC(C)C)C3=O
photoluminescence quantum yield (in C1CCOC1): 0.55

O=C(c1ccccc1)c1cc2ccc1CCc1ccc(c(-c3ccc(N(c4ccccc4)c4ccccc4)cc3)c1)CC2
photoluminescence quantum yield [2]: 0.15

C=C[C@]12CC[C@H](CC1)N=N2
photoluminescence quantum yield (in CC#N): 0.0009

CC(C)[Si](C#Cc1c2nsnc2c(C#C[Si](C(C)C)(C(C)C)C(C)C)c2nc3c(ccc4ccccc43)nc12)(C(C)C)C(C)C
photoluminescence quantum yield (in CCCCCC): 0.42

CCn1c2ccccc2c2cc(C#Cc3cc(C#Cc4ccc5c(c4)c4ccccc4n5CC)nc(C#N)n3)ccc21
photoluminescence quantum yield (in C1CCOC1): 0.66 | photoluminescence quantum yield (in CCOC(C)=O): 0.68 | photoluminescence quantum yield (in CN(C)C=O): 0.21 | photoluminescence quantum yield (in Cc1ccccc1): 0.81 | photoluminescence quantum yield (in ClCCl): 0.65

C[N+]1=C(/C=C/C=C2/N(CCC[N+](C)(C)C)c3ccc(Br)cc3C2(C)C)C(C)(C)c2ccccc21
photoluminescence quantum yield (in CS(C)=O): 0.11

CCn1c2ccccc2sc2c(C#N)c3[nH]c4ccccc4sc3c(C#N)c21
photoluminescence quantum yield (in ClC(Cl)Cl): 0.32

F[B-]1(F)OC(c2ccccc2)=Cc2c3ccccc3cc[n+]21
photoluminescence quantum yield (in ClC(Cl)Cl): 0.046

c1ccc(-c2ccc3c(c2)c2cc(-c4ccccc4)ccc2n3-c2ccc3c(c2)c2cc(-n4c5ccc(-c6ccccc6)cc5c5cc(-c6ccccc6)ccc54)ccc2n3-c2ccc(-c3nc(-c4ccccc4)nc(-c4ccccc4)n3)cc2)cc1
photoluminescence quantum yield (in Cc1ccccc1): 0.74

CC1=CC(C)=[N+]2C1=Cc1c3ccccc3c(-c3[nH]c(C)cc3C)n1[B-]2(F)F
photoluminescence quantum yield (in ClCCl): 0.61

CCCCCCOc1ccc(/C=C/c2ccc(N(c3ccc(/C=C/c4ccc(OCCCCCC)cc4)cc3)c3ccc(-c4nc5ccccc5nc4-c4ccc(N(c5ccc(/C=C/c6ccc(OCCCCCC)cc6)cc5)c5ccc(/C=C/c6ccc(OCCCCCC)cc6)cc5)cc4)cc3)cc2)cc1
photoluminescence quantum yield (in C1CCOC1): 0.66

CN(C)c1ccc2c(C(=O)NCc3ccccc3)cc(C(=O)[O-])nc2c1
photoluminescence quantum yield (in CCO): 0.013

CC(=O)OC[C@H]1O[C@@H](OCC#Cc2ccc(C3=C4C(C)=CC(/C=C/c5ccc(N(C)C)cc5)=[N+]4[B-](F)(F)n4c(/C=C/c5ccc(N(C)C)cc5)cc(C)c43)cc2)[C@H](OC(C)=O)C(OC(C)=O)[C@@H]1OC(C)=O (some centres not stated)
photoluminescence quantum yield (in CC#N): 0.2

CC(C)(C)c1ccc(C#Cc2cc3c(C#Cc4ccc(C(C)(C)C)cc4)c(C#Cc4ccc(C(C)(C)C)cc4)c4cc(C#Cc5ccc(C(C)(C)C)cc5)cc5c(C#Cc6ccc(C(C)(C)C)cc6)c(C#Cc6ccc(C(C)(C)C)cc6)c(c2)c3c45)cc1
photoluminescence quantum yield (in ClCCl): 0.23

CC(C)(C)c1ccc2c(c1)c1cc(C(C)(C)C)ccc1n2-c1ccc2c(c1)C(=O)c1ccc(-n3c4ccc(C(C)(C)C)cc4c4cc(C(C)(C)C)ccc43)cc1C2=O
photoluminescence quantum yield (in Cc1ccccc1): 0.15 | photoluminescence quantum yield (in c1ccc2c(c1)c1ccccc1n2-c1ccc(-c2ccc(-n3c4ccccc4c4ccccc43)cc2)cc1): 0.52

CC(C)c1ccc(/C=C/c2nc3ccc(N(C)C)cc3s2)cc1
photoluminescence quantum yield (in C1CCCCC1): 0.51 | photoluminescence quantum yield (in CC#N): 0.54

c1ccc(N(c2ccccc2)c2ccc(-c3ccc4c(c3)C3(c5cc(-c6ccc(N(c7ccccc7)c7ccccc7)cc6)ccc5O4)c4ccccc4-c4ccccc43)cc2)cc1
photoluminescence quantum yield (in ClCCl): 0.47 | photoluminescence quantum yield [2]: 0.45

Cc1cc(C(F)(F)F)nc2c1ccc1nc(-c3ccc(Cl)cc3)cn12
photoluminescence quantum yield (in CC#N): 0.84 | photoluminescence quantum yield (in CCCCOC(C)=O): 0.76 | photoluminescence quantum yield (in CCOC(C)=O): 0.9 | photoluminescence quantum yield (in CO): 0.78 | photoluminescence quantum yield (in ClC(Cl)Cl): 0.64 | photoluminescence quantum yield (in c1ccccc1): 0.88

O=C([O-])c1c(Cl)c(Cl)c(Cl)c(Cl)c1-c1c2cc(Cl)c(=O)c(Cl)c-2oc2c(Cl)c(O)c(Cl)cc12
photoluminescence quantum yield (in O): 0.628

N#Cc1c(-n2c3ccc(Br)cc3c3cc(Br)ccc32)c(-n2c3ccc(Br)cc3c3cc(Br)ccc32)c(C#N)c(-n2c3ccc(Br)cc3c3cc(Br)ccc32)c1-n1c2ccc(Br)cc2c2cc(Br)ccc21
photoluminescence quantum yield (in Cc1ccccc1): 0.45

CN1c2cc3nc4cc(F)c(F)cc4nc3cc2N(C)C1(C)C
photoluminescence quantum yield (in CCO): 0.8

CC1(C)Nc2cc3nc4cc(Cl)c(Cl)cc4nc3cc2N1
photoluminescence quantum yield (in CCO): 0.42

C[Si]1(C)C(c2ccccc2)=Cc2ccccc21
photoluminescence quantum yield (in ClCCl): 0.55

CN(C)c1ccc2c(c1)Cc1ccccc1-2
photoluminescence quantum yield (in C1CCOC1): 0.39 | photoluminescence quantum yield (in C1COCCO1): 0.38 | photoluminescence quantum yield (in CC(=O)N(C)C): 0.4 | photoluminescence quantum yield (in CCCCCC): 0.25 | photoluminescence quantum yield (in CCCCCCO): 0.22 | photoluminescence quantum yield (in CCCCCO): 0.19 | photoluminescence quantum yield (in CCCCO): 0.19 | photoluminescence quantum yield (in CCCO): 0.21 | photoluminescence quantum yield (in CCO): 0.2 | photoluminescence quantum yield (in CCOC(C)=O): 0.4 | photoluminescence quantum yield (in CCOCC): 0.31 | photoluminescence quantum yield (in CO): 0.2 | photoluminescence quantum yield (in CS(C)=O): 0.42 | photoluminescence quantum yield (in O): 0.12 | photoluminescence quantum yield (in OC1CCCCC1): 0.22

c1ccc(-c2ccc(-c3cc(-c4ccccn4)nc(-c4ccccn4)c3)cc2)cc1
photoluminescence quantum yield (in ClCCl): 0.18
